Source: paper PMC12881674, “Activation of TRPV3 channels in bladder cancer cells stimulates ATP release” (Molecular Pharmacology, 2025)

Key:
HEK293 cells = test system: HEK293 cells; design: method as in PMID 35916168; settings: >10 μM; cited from earlier work
KU-19-19 cells = test: ATPlite luminescence assay of extracellular ATP; type: cell-based, human; settings: pretreatment with 10 μM ruthenium red, 50 μM AV3-1
Method: KU-19-19 cells (1 × 10^5 per well) were plated in 24-well plates and cultured for 24 hours. Medium was removed, and wells were washed with PBS before adding 1 mL of drugs dissolved in PBS. After 30 minutes, 100 μL of the supernatant was transferred to a 96-well plate. ATP content was measured using the ATPlite luminescence ATP assay (Revvity, catalog number 6016943) following manufacturer’s instructions. Luminescence was recorded using a Polarstar Omega reader and normalized to control wells without addition of drugs.
Fig. 4 TRPV3 activation by AV3-1 was enhanced by cholesterol supplementation and causes ATP release in KU-19-19 bladder cancer cells. […] Current amplitudes were recorded using voltage ramps from −100 mV to +100 mV (500-millisecond duration) and expressed as current density (pA/pF) measured at +100 mV and −100 mV. (C) Quantification of current densities (pA/pF) at −100 mV (inward current) and +100 mV (outward current) at the time points (1, 2) as indicated in (A, B). […] Statistical significance was determined using Kruskal-Wallis ANOVA followed by Conover test; ∗P < .05. […] Inset: Box-and-whisker plots of AV3-1 potencies under control conditions (open box) and following cholesterol supplementation (gray box), derived from individual concentration-response fits and expressed as pEC50 (-log10(EC50 [M])). […]

| SMILES | effects on HEK293 cells at higher concentrations (HEK293 cells) | effect on AV3-1-evoked ATP release (KU-19-19 cells) |
| --- | --- | --- |
| Cc1ccc(O)c(C2CCC(C(C)C)=C2Cl)c1 (centres unmarked) [KS0365] | nonspecific effects |  |
| N.N.N.N.N.N.N.N.N.N.N.N.N.N.[Cl-].[Cl-].[Cl-].[Cl-].[Cl-].[Cl-].[O-2].[O-2].[Ru+3].[Ru+3].[Ru+4] [ruthenium red, reference compound] |  | reduced ATP levels |
